One compound from PMC3697084 (Methods in enzymology, 2010) can be followed below.

In the assay the target is T1, human red cone opsin (Homo sapiens, UniProt P04000).
T1 sequence (P04000 1-364): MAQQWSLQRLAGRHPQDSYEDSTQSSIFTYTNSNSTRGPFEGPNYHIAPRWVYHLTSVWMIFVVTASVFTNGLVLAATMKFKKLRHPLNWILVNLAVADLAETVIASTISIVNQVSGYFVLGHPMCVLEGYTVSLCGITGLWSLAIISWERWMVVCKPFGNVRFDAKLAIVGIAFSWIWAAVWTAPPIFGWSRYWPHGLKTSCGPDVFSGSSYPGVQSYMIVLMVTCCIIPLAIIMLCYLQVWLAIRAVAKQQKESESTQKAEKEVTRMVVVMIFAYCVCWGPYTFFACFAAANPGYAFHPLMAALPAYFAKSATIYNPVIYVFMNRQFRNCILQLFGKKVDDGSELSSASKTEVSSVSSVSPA
As to the kind of experiment: radioactive GTPγS filter binding, transducin activation. Conditions: COS-1 membranes, bovine rod transducin, pH 6.4. The assay is classed as biochemical.

For `CC(=O)/C=C/C1=C(C)CCCC1(C)C` [β-ionone], the inverse agonist result is recorded as “these compounds were found to be inverse agonists to the red cone opsin”.
